Values of other authors in patent publication US11723919B2, “Composition or combination comprising anionic dietary supplement and 25-hydroxy vitamin D” (Phibro Animal Health Corporation, priority 2020, dated 2023).

Test system: dairy cows
Details: administration pre- or post-calving; Guo et al. 2018

Question: With `C=C1CC[C@H](O)C/C1=C/C=C1\CCC[C@]2(C)[C@@H]([C@H](C)CCCC(C)(C)O)CC[C@@H]12` [25-hydroxy vitamin D, 25-hydroxy vitamin D3] as the compound, how does the “effect on milk yield” value read?
Answer: no effect
